ChEMBL document CHEMBL1124670, “1-(3-cyano-2,3-dideoxy-beta-D-erythro-pentofuranosyl)thymine (cyanothymidine): synthesis and antiviral evaluation against human immunodeficiency virus” (1989)
Converted amounts (≈) assume the structure as drawn.

Key:
Type in all cases: functional, Homo sapiens
ATH-8 cell line = experiment: Protection of ATH8 cells against the cytopathic effect of HIV isolate […]
C8166 [1] = experiment: Pprotection of C8166 cells against the cytopathic effect of HIV isolate RF
C8166 [2] = experiment: Protection of C8166 cells against the cytopathic effect of HIV isolate CBL-1
C8166 [3] = experiment: Protection of C8166 cells against the cytopathic effect of HIV isolate RF

Structure (SMILES)	ED90 (ATH-8 cell line) [mg/L]	ED90 (C8166 [1]) [mg/L]	ED90 (C8166 [2]) [mg/L]	ED90 (C8166 [3]) [mg/L]
Cc1cn([C@H]2C[C@H](N=[N+]=[N-])[C@@H](CO)O2)c(=O)[nH]c1=O [ZIDOVUDINE]	<0.25	1 (≈ 3.74 µM)	0.1 (≈ 0.374 µM)	–
Cc1cn([C@H]2C=C[C@@H](CO)O2)c(=O)[nH]c1=O [STAVUDINE]	<0.25	1 (≈ 4.46 µM)	–	–
Cc1cn(C2C[C@@H](C#N)[C@@H](CO)O2)c(=O)[nH]c1=O (stereo partly drawn)	>2.5	–	>100	>100
